According to patent publication US20070202047A1, “Polyamine-substituted ligands for use as contrast agents” (priority 2006, published 2007):
Several values for one entry are separate records, joined by “and”; a condition that tells them apart may be missing. Equal values may be shown once.

Columns and labels:
[1] = tested on: MH3924A Morris hepatoma cells; assay: Intracellular uptake of gadolinium complexes (ICP-MS); assay type: cell-based, rat; details: MH3924A cells; for intracellular uptake of gadolinium complex: 24-h incubation
Description: (§1) Cell culture. B16 melanoma cells (mouse) and MH3924A Morris hepatoma cells (rat) were obtained from the German Cancer Research Center (DKFZ) tumor bank and grown at 37° C. as stock cultures in RPMI 1640 supplemented with 10% fetal calf serum and 1% glutamine as standard medium under a 5% CO2 atmosphere (all components: Pan Biotech GmbH, Aidenbach, Germany). For contrast agent uptake studies 10^6 cells were inoculated into 25 cm^2 culture flasks (BD Biosciences, Bedford, USA) and grown for 24 h in 10 mL of the standard culture medium. Cells were then incubated for an additional 24 h (1 h for temperature dependence studies) with fresh medium containing 0, 1, 2.5, 5 or 10 μM of the selected gadolinium complex (three replicate flasks for each incubation). Afterwards the medium was removed, cells were trypsinated, washed twice, resuspended in culture medium and counted (typical yields: 3.5-6 million cells). For comparison 2.5×10^5 human melanocytes (Promo Cell, Heidelberg, Germany) were incubated for 24 h with melanocyte growth medium (Promo Cell, Heidelberg, Germany) containing 0, 1, 2.5, 5 or 10 μM of the selected gadolinium complex (two replicate flasks for each incubation). The work up procedure was as described above typically yielding 2.5×10^5 cells. Cultured human hepatocytes (Cytonet GmbH, Weinheim, Germany) embedded in a collagen matrix in a 12 well microtiter plate, with 6×10^5 viable cells per well were incubated for 24 h in hepatocyte growth medium (Cytonet GmbH, Weinheim, Germany) containing the same concentration series of selected gadolinium complexes. Afterwards the medium was removed, cells were separated using collagenase (Roche Diagnostics, Mannheim, Germany). After digestion the cells were washed twice with PBS, resuspended in culture medium and counted (typical yields: 6×10^5 cells per tube). The intracellular gadolinium content was determined by ICP-MS as described below.
(§2) ICP-MS. Samples containing the above mentioned number of harvested cells were digested with 50% concentrated HNO3 (Superselect; Merck, Darmstadt, Germany) under microwave heating with a Mars 5 apparatus (CEM GmbH, Kamp-Lintfort, Germany). To each sample 100 μL of an aqueous solution of rhodium chloride (1 μg/mL) were added so that Rh-103 could be used as an internal quantification standard. Gd-160 measurements were performed with the ICP-MS instrument mentioned above. The gadolinium concentrations were determined using standard curves created prior to cell analyses. For each uptake incubation condition triplicate cell samples were analyzed, and Gd content for each sample was recorded as the mean of two MS determinations.
(§3) Intracellular Uptake of Gadolinium Complexes. B16 melanoma and MH3924A hepatoma cells as well as human melanocytes and hepatocytes were incubated for 24 h in the presence of the gadolinium complexes shown in FIG. 1, using concentrations in the range of 1-10 μM. Incubations with the unsubstituted [Gd(DTPA)(H2O)]^2−complex (Magnevist®) served as controls. Following cell harvest and hydrolysis, inductively coupled plasma mass spectrometry (ICP-MS) with direct detection of gadolinium was used to quantitate complex uptake (triplicate cultures for each incubation).
(§4) Cell Uptake Studies. A493 (human kidney), B16 melanoma cells (mouse), HeLa (human cervix), MCF-7 (human breats), MH3924A (Morris hepatoma) cells (rat) and 3T3 NIH (mouse fibroblasts) were obtained from the DKFZ tumor cell collection. 3×10^6 cells of each cell type were grown for 24 hours in culture flasks. Afterwards they were incubated for 1 hour in 10 mL culture media containing 0, 10, 50 and 100 μM of Gd-2.2. Gd-3.2 or Gd-4.2. Afterwards the medium was removed, the cells were trypsinated, washed twice, resuspended in culture medium and counted. The gadolinium uptake was determined in triplicate. […] cells were incubated with 0, 1, 2.5, 5 and 10 μM of the Gd-1.2. and Gd-5.2. for 24 h. […]

[2] = tested on: subcutaneous MH3924A tumor; assay: MRI of ACI rats bearing a subcutaneous MH3924A tumor; assay type: in vivo, rat; details: 0.1 mmol/kg i.v., 2.35 T
Description: Animal models. For in vivo tumor studies 2×10^6 MH3924A tumor cells were injected subcutaneously into the right thigh of male ACI rats (Charles River, Sulzfeld, Germany) weighing 220 to 260 g. All animal experiments were performed in compliance with the German Animal Protection Laws (Permission 35-9185.81/G-7-03, Reg.-Praesidium, Karlsruhe, Germany).
MRI. At 25 days after inoculation, when tumors had reached a diameter of ca. 10-15 mm, the MR imaging experiments were initiated. ACI rats were anesthetized by intravenous injection of ketamin (Ketanest®, 0.1 mg/g body wt.; Parke-Davis, Berlin, Germany). Then a dose of 0.1 mmol/kg Magnevist® or Gadovist® (Schering, Berlin, Germany) or one of the synthesized agents Gd-3.1., Gd-5.1. or Gd-6.1. was injected intravenously into a lateral tail vein. For one experiment a higher dose (0.36 mmol/kg) of Magnevist® was used. Individual rats were examined by MRI at 1 h and 24 h post Gd, in the case of Magnevist® also at ca. 15 min post Gd. Proton imaging studies were performed at 2.35 T (100.3 MHz) with a Biospec 24/40 instrument (Bruker BioSpin MRI, Ettlingen, Germany). […] Two transaxial multislice imaging protocols were applied with a field of view of 70×70 mm, 128 time-domain data points, 96 phase-encoding steps, and 16 slices of 2 mm thickness. A multi-spin-echo sequence was used for proton-density and T2-weighted images (repetition time TR=2 s, 12 echoes with echo times TE of 8, 16, 24, . . . 96 ms, number of averages=1), and a spoiled gradient-echo sequence was used for T1-weighted imaging (TR=212 ms, TE=5 ms, flip angle=60°, number of averages=3). The data were Fourier transformed to give a 128×128 image matrix with 0.55 mm pixel resolution. Analogous T1-weighted images with coronal slices were acquired with a field of view of 80×80 mm and 3-mm slice thickness.
Imaging viewing, ROI analysis and export of TIFF files was performed with the freeware MRIcro from Chris Rorden (http://people.cas.sc.edu/rorden/mricro.html).

B16 melanoma cells = assay: Intracellular uptake of gadolinium complexes (ICP-MS); assay type: cell-based, mouse; details: 24-h incubation; for intracellular uptake of gadolinium complex: B16 melanoma cells, 10 μM
Description: as §1, §2, §3, §4

Compound: NCCCCN(CCCN)C(=O)CN(CCN(CCN(CC(=O)[O-])CC(=O)N(CCCN)CCCCN)CC(=O)[O-])CC(=O)[O-].[Gd+3] [Gd-6.1]
- intracellular uptake of gadolinium complex ([1]; 10 μM): 0.108 fmol/cell
- contrast ratio tumor vs. muscle tissue, T1 weighting ([2]; 1 h post Gd): 1.49
- contrast ratio tumor vs. muscle tissue, T1 weighting ([2]; 24 h post Gd): 1.21

Compound: NCCN(CCN)C(=O)CN(CCN(CCN(CC(=O)[O-])CC(=O)N(CCN)CCN)CC(=O)[O-])CC(=O)[O-].[Gd+3] [Gd-5.1]
- intracellular uptake of gadolinium complex (B16 melanoma cells): 0.027±0.002 fmol/cell
- intracellular uptake of gadolinium complex ([1]; 10 μM): 0.053±0.005 fmol/cell
- observed factor of decrease in uptake at 4° C. vs. 37° C. ([1]; 1 h (FIG. 3A)): ~6.5
- uptake over 1 h at 4° C. ([1]; 1 h, 4° C., 10 μM): 0.00064±0.00004 fmol/cell
- uptake over 1 h at 37° C. ([1]; 1 h, 37° C., 10 μM): 0.008±0.00041 fmol/cell
- contrast ratio tumor vs. muscle tissue, T1 weighting ([2]; 1 h post Gd): 1.11
- contrast ratio tumor vs. muscle tissue, T1 weighting ([2]; 24 h post Gd): 1.08

Compound: CCN(CC)CCNC(=O)CN(CCN(CCN(CC(=O)[O-])CC(=O)N(CCN)CCN)CC(=O)[O-])CC(=O)[O-].[Gd+3] [Gd-3.1]
- fold increase in intracellular accumulation versus complex of ligand 2.1 (B16 melanoma cells; cell line not stated): 2.87
- intracellular uptake of gadolinium complex (B16 melanoma cells): 0.082±0.004 fmol/cell
- intracellular uptake of gadolinium complex ([1]; 10 μM): 0.175±0.0013 fmol/cell and 0.175 fmol/cell
- contrast ratio tumor vs. muscle tissue, T1 weighting ([2]; 1 h post Gd): 1.22
- contrast ratio tumor vs. muscle tissue, T1 weighting ([2]; 24 h post Gd): 1.11
